# Tests used:
# YAP-TEAD = YAP-TEAD inhibitor activity by Nano luciferase method (8xGTiiC-nLuc reporter in 293T cells); type: cell-based; conditions: Homo sapiens, HEK-293T, 48 hours incubation, read-out: Nano-luciferase detection (IC50)
# Excerpt: EXAMPLE 2: YAP-TEAD INHIBITOR ACTIVITY WAS DETECTED BY NANO LUCIFERASE METHOD
# (1) Experimental materials and equipments: 293T cells were purchased from NANJING COBIOER BIOSCIENCES CO., LTD. DMEM medium (High sugar, no phenol red, Bio-Channel), DMSO (dimethyl sulfoxide), Lipo6000™ transfection reagent (Beyotime), pGL3B-8xGTiiC-nLuc-CMV-fLuc plasmid, 0.25% EDTA-Tripsin (trypsin digest), 1×PBS (phosphate buffer, PH7.2), 96-well white cell culture plate (PerkinElmer), fetal bovine serum (FBS), 10,000 U/mL penicillin-G/streptomycin, high-speed freezing centrifuge (EPPENDORF 5810R), 37° C. CO2 incubator, Vi-cell® Cell Counter, Envision Microplate Reader (PerkinElmer).
# The revived 293T cells were inoculated into a 10 cm culture dish and placed in an incubator with 5% CO2, and cultured at constant temperature of 37° C. To ensure transfection efficiency, cells at logarithmic phase (cell density of approximately 50%-70%) should be used.
# On the day before transfection, cells at the logarithmic phase were digested with Trypsin-EDTA, and culture medium was added to terminate digestion. The cell suspension was prepared by blowing and mixing using a pipette.
# Cell concentration was measured using Vi-cell, and the cell suspension was diluted to a suspension of 5*10^^5 cells per milliliter. After preparing the cell suspension, the suspension was gently mixed. 10 ml of liquid was added to a 10 cm culture dish. In this way, the number of cells in each 10 cm culture dish was 5*10^^6. The cells were incubated at a constant temperature of 37° C. for 1 day in an incubator with 5% CO2.
# Two clean and sterile centrifuge tubes were taken and added with 750 μL opti-MEM Medium without antibiotics and serum, respectively. Then one tube was added with 15 μg Plasmid (pGL3B-8xGTiiC-nLuc-CMV-fLuc), and gently blew and mixed well using a pipette; the other tube was added with Lipo6000 transfection reagent, and gently blew and mixed using a pipette. After standing at room temperature for 5 minutes, the culture solution containing DNA was added gently to the culture solution containing Lipo6000 transfection reagent, and mixed well by gently inverting the centrifuge tube, then standing at room temperature for 5 minutes.
# The above mixture was added evenly to a 10 cm culture dish and replaced with fresh complete culture medium after 6 hours of cultivation.
# After transfection for 1 day, cells were digested with Trypsin EDTA, and culture medium was added to terminate the digestion. The cell suspension was prepared by blowing and mixing using a pipette.
# Cell concentration was measured using Vi-cell, and the cell suspension was diluted to a suspension of 20000 cells per milliliter.
# After preparing the cell suspension, the suspension was gently mixed, and added to 96-well plate with 100 μL per well. Thus, the density of the cells to be tested is 2000 cells per well.
# The inoculated cell culture plate was placed in the incubator for cultivation, and after about 24 hour, compounds with concentration gradient were added.
# 10 mM compound stock solution was diluted with culture medium to 50 μM. Compound solution of 50 μM was added to the third column of the deep well plate, 216 μL of culture medium containing 0.5% DMSO was added to the fourth to eleventh columns, successively.
# Gradient dilution: taking 100 μL of solution from the third column and adding the solution to the fourth column and mixing well; then taking 100 µL of solution from the fourth column again and adding the solution to the fifth column, repeating this operation until the eleventh column.
# Taking 25 μL of compound solution from the deep well plate and adding it to a 96-well culture plate using a multi-channel pipette. Repeating four times on the 96 well plate for each compound. Finally, a concentration gradient of 1:3.16 was formed in the 96-well plate with a maximum concentration of 10,000 nM. The • (5) Addition of Nano Luciferase Detection Reagent and Read […]
# [1] = system: human pleural mesothelioma cells NCI-H226; test: Cell anti-proliferation experiment (CCK8), NCI-H226; type: cell-based
# Excerpt: TEST EXAMPLE 1 CELL ANTI-PROLIFERATION EXPERIMENT
# Determination of proliferation inhibition of YAP-TEAD inhibitor compounds on human pleural mesothelioma cells NCI-H226
# Experimental materials and equipments: Human pleural mesothelioma cells NCI-H226 was purchased from NANJING COBIOER BIOSCIENCES CO., LTD. RPMI-1640 medium (Bio-Channel), DMSO (dimethyl sulfoxide), CCK8 (WST-8) Cell Assay Kit (Beyotime), 0.25% EDTA-Tripsin (trypsin digest), 1×PBS (phosphate buffer, PH7.2), 96-well plate (Corning), fetal bovine serum (FBS), 10,000 U/mL penicillin-G/streptomycin, high-speed freezing centrifuge (EPPENDORF 5810R), enzyme-linked immunosorbent assay (Tecan Spark).
# 1. Cell plating • A) Tumor cells were cultured to 80-90% density in RPMI-1640 (containing 10% FBS and 100 U/mL penicillin-G/streptomycin) under the condition of 37° C., 5% CO2 and saturated humidity. • B) The culture medium was removed from the 10 cm culture dish. • C) Cells were washed with 10 ml 1×PBS. • D) 4 ml of 0.25% EDTA-Tripsin was added to digest pancreatin for 5 minutes in an incubator at 37° C. and 5% CO2. Then the mixture was transferred to a 15 ml centrifuge tube, and centrifuged for 5 minutes at 200 g. The supernatant was discarded to obtain cell precipitation. • E) The cell precipitation was resuspended with 4 ml of […], counted and adjusted to 10,000 cells/ml. • F) The cell suspension was added to a 96-well plate with a volume of 100 μL per well and cultured overnight in an incubator at 37° C. and 5% CO2.
# • Compound dilution • A) Preparation of gradient dilution solutions of the tested compounds: the tested compounds was configured to 1 mM stock solution. Then […] of stock solution was dissolved in 1.5 ml of DMSO-free culture solution, and then 3-fold continuous gradient dilution with 0.1% DMSO culture solution was performed to get a total of 9 concentrations. The diluted concentrations of the compound were as follows: 333.33 nM, 111.11 nM, 37.03 nM, 12.35 nM, 4.15 nM, 1.37 nM, 0.46 nM, 0.15 nM • B) After full mixing, 100 μL of culture compound solution was taken to replace the culture solution in the cell culture plate, with 4 duplicated wells at each concentration; • C) The cells were transferred to the incubator to incubate for 3 days.
# • A) the cell culture plate was taken out and added with 10 μl of CCK-8 (WST-8) solution per well in the biosafety cabinet; • B) The cell culture plate was put back into the incubator and continued to incubate for 3 hours; • C) 450 nm wavelength was selected to measure absorbance value on TECAN enzyme linked immunosorbent assay detector.
# The following formula was used to calculate the cell viability (% Cell Viability); • Cell Viability (%)=[A(Drug-added)-A(Blank)]/[A(0 Drug-added)-A(blank)][…] • A (Drug-added): The absorbance of wells containing cells, CCK8 solution, and drug solution. • A (Blank): The absorbance of wells containing culture medium and CCK8 solution, but without cells. • A (0 Drug-added): The absorbance of wells containing cells, CCK8 solution, but without drug solution. • Cell viability: Cell proliferation viability or cytotoxicity viability was determined by the IC50 value obtained by curve fitting using GraphPad Prism 8 software.
SMILES,IC50 (YAP-TEAD) [nM],IC50 [1] [nM]
C[C@H](NC(=O)c1ccc2c(c1)C1CCCC1CN2c1ccc(C(F)(F)F)cc1)c1ccccc1 (stereo partly drawn) [Example T-283],1000 to 5000,1000 to 5000
Cn1cc2c(=O)n(-c3ccc(C(F)(F)F)cc3)c3ccc(C(=O)N4CC(C#N)C4)cc3c2n1 [Example T-104],,1000 to 5000
C[C@H](NC(=O)c1cnc2c(c1)C1CCCCC1C(=O)N2c1ccc(C(F)(F)F)cc1)c1ccccn1 (stereo partly drawn) [Example T-247],≤ 1000,≤ 1000
CNS(=O)(=O)c1ccc2c(c1)c1cn(CCOC)nc1c(=O)n2-c1ccc(C(F)(F)F)cc1 [Example T-45],≤ 1000,≤ 1000
C=CC(=O)N[C@@H](C)c1c(C)c2ccccc2n(-c2ccc(C(F)(F)F)cc2)c1=O [Example T-284],1000 to 5000,1000 to 5000
CNS(=O)(=O)c1ccc2c(c1)c1ncn(CCOC)c1c(=O)n2-c1ccc(C(F)(F)F)cc1 [Example T-20],≤ 1000,≤ 1000
Cn1cc2c(=O)n(-c3ccc(C(F)(F)F)cc3)c3ccc(NC(=O)/C=C/CN4CCOCC4)cc3c2n1 [Example T-178],≤ 1000,≤ 1000
C[C@H](NC(=O)c1ccc2c(c1)c1nn(C)cc1c(=O)n2-c1ccc(C(F)(F)F)cc1)c1ncccc1F [Example T-126],≤ 1000,≤ 1000
C[C@@H](NC(=O)c1ccc2c(ccc(=O)n2-c2ccc(C(F)(F)F)cc2)c1)c1ccccn1 [Example T-24],1000 to 5000,1000 to 5000
CCS(=O)(=O)Nc1ccc2c(c1)c1nn(C)cc1c(=O)n2-c1ccc(C(F)(F)F)cc1 [Example T-188],≤ 1000,≤ 1000
CC(C)OC(=O)Nc1ccc2c(c1)c1nn(C)cc1c(=O)n2-c1ccc(C(F)(F)F)cc1 [Example T-194],≤ 1000,≤ 1000
C[C@H](NC(=O)c1ccc2c(c1)c1nn(C)cc1c(=O)n2-c1ccc(C(F)(F)F)cc1)c1ccncc1 [Example T-147],,1000 to 5000
Cn1cc2c(=O)n(-c3ccc(C(F)(F)F)cc3)c3ccc(C(=O)N4CC(O)C4)cc3c2n1 [Example T-103],,1000 to 5000
C[C@@H](NC(=O)c1ccc2c(c1)c1nn(C)cc1c(=O)n2-c1ccc(C(F)(F)F)cc1)c1ccccn1 [Example T-106],,1000 to 5000
CC(C)(C)OC(=O)c1ccc2c(c1)c(=O)ccn2-c1ccc(C(F)(F)F)cc1 [Example T-4],1000 to 5000,
COC[C@@H](C)NC(=O)c1ccc2c(c1)c1nn(C)cc1c(=O)n2-c1ccc(C(F)(F)F)cc1 [Example T-119],,1000 to 5000
COC[C@@H](C)NC(=O)c1ccc2c(c1)c(=O)ccn2-c1ccc(C(F)(F)F)cc1 [Example T-36],1000 to 5000,
CN(C)C(=O)c1ccc2c(c1)c1nn(C)cc1c(=O)n2-c1ccc(C(F)(F)F)cc1 [Example T-112],,1000 to 5000
C[C@H](NC(=O)c1ccc2c(c1)c1c(c(=O)n2-c2ccc(C(F)(F)F)cc2)CC(F)CC1)c1ccccn1 (stereo partly drawn) [Example T-304],≤ 1000,
O=C(c1ccc2c(c1)c(=O)ccn2-c1ccc(C(F)(F)F)cc1)N1CC(O)C1 [Example T-37],1000 to 5000,

# Other lines, results leading:
IC50 (YAP-TEAD) [nM],IC50 [1] [nM],SMILES
≤ 1000,≤ 1000,C[C@H](NC(=O)c1ccc2c(c1)cc(C(F)F)c(=O)n2-c1ccc(C(F)(F)F)cc1)c1cccc(N)n1 [Example T-417]
1000 to 5000,1000 to 5000,C[C@H](NC(=O)c1cnc2c(c1)c1cscc1c(=O)n2-c1ccc(C(F)(F)F)nn1)c1ccccn1 [Example T-398]
≤ 1000,≤ 1000,C=C1c2cn(C)nc2-c2cc(C(=O)N[C@@H](C)c3ccccn3)ccc2N1c1ccc(C(F)(F)F)cc1 [Example T-324]
≤ 1000,≤ 1000,C[C@H](NC(=O)c1cnc2c(c1)c1cnccc1c(=O)n2-c1ccc(C(F)(F)F)cc1)c1ccccn1 [Example T-406]
≤ 1000,≤ 1000,Cc1cc2cc(C(=O)N[C@@H](C)c3ccccn3)ccc2n(-c2ccc(C(F)(F)F)cc2)c1=O [Example T-415]
≤ 1000,≤ 1000,C[C@H](NC(=O)c1ccc2c(c1)c1c(c(=O)n2-c2ccc(C(F)(F)F)cc2)CCC1)c1cccc(N)n1 [Example T-425]
≤ 1000,≤ 1000,COC[C@H](C)NC(=O)c1ccc2c(c1)C1=C(CCC1)CN2c1ccc(C(F)(F)F)cc1 [Example T-426]
1000 to 5000,,CC(=O)Nc1ccc2c(c1)c(C)cc(=O)n2-c1ccc(C(F)(F)F)cc1 [Example T-444]
1000 to 5000,,CC1OCc2c1c(=O)n(-c1ccc(C(F)(F)F)cc1)c1ncc(C(=O)N[C@@H](C)c3ccccn3)cc21 (stereo partly drawn) [Example T-438]
≤ 1000,,CCS(=O)(=O)Nc1ccc2c(c1)c(C)cc(=O)n2-c1ccc(C(F)(F)F)cc1 [Example T-442]
≤ 1000,,Cc1cc2cc(C(=O)N[C@@H](C)c3cccc(N)n3)cnc2n(-c2ccc(C(F)(F)F)cc2)c1=O [Example T-461]
≤ 1000,,C[C@H](NC(=O)c1ccc2c(c1)c1c(c(=O)n2-c2ccc(C(F)(F)F)cc2)CC(F)(F)CC1)c1ccccn1 [Example T-308]
≤ 1000,,C[C@H](NC(=O)c1ccc2c(c1)c1c(c(=O)n2-c2ccc(C(F)(F)F)cc2)C(F)(F)CCC1)c1ccccn1 [Example T-309]
≤ 1000,,C[C@H](NC(=O)c1ccc2c(c1)c1c(c(=O)n2-c2ccc(C(F)(F)F)cc2)C(F)CCC1)c1ccccn1 (stereo partly drawn) [Example T-305]
